Results from US10513519B2, “Solid forms of (1S,4S)-4-(2-(((3S,4R)-3-fluorotetrahydro-2H-pyran-4-yl)amino)-8-((2,4,6-trichlorophenyl)amino)-9H-purin-9-yl)-1-methylcyclohexane-1-carboxamide and methods of their use” (Signal Pharmaceuticals, LLC, priority 2016, dated 2019).
pIC50: −log10 of the molar value.

Legend:
64 cancer cell lines = experiment: Anti-proliferative activity across a panel of 64 cancer cell lines (CellTiter-Glo); format: cell-based
Description: Prior to testing, cells were grown and expanded in culture flasks to provide sufficient amounts of starting material. Cells were then diluted to the appropriate densities and added directly to the compound-spotted 384-well plates. Cells were allowed to grow for 72 h at 37° C./5% CO2. At the time when compound was added (to), initial cell number was assessed via a viability assay (Cell Titer-Glo) by quantifying the level of luminescence generated by ATP present in viable cells. After 72 h, cell viability of compound-treated cells was assessed via Cell Titer-Glo and luminescence measurement. The apoptotic response to Compound 1 was assessed by quantifying the activities of caspase 3 and caspase 7 (Caspase 3/7-Glo) in treated cells and DMSO control cells.
Cells were treated with DMSO or increasing concentrations of Compound 1 for 72 h. Proliferation was measured using CellTiter-Glo as described.

pRSK1 S380 in SW48 cells = experiment: pRSK1 S380 Mesoscale assay in SW48; format: cell-based; conditions: Homo sapiens; SW48, 2 h treatment, n = 3
Description: Cancer cells were seeded at a density of 25,000 cells per well in 96-well tissue culture plates and incubated at 37° C. in a CO2 incubator overnight. After treatment with Compound 1 at 37° C. for 2 h, the cells were lysed with Mesoscale lysis buffer and pRSK S380 levels in each lysate were measured via Mesoscale ELISA technology.

[1] = Homo sapiens, NCI-H23, 72 h, NCI-H23 (Lung)
[2] = Homo sapiens, NCI-H28, 72 h, NCI-H28 (Lung)
[3] = Homo sapiens, NCI-H226, 72 h, NCI-H226 (Lung)
[4] = Homo sapiens, NCI-H441, 72 h, NCI-H441 (Lung)
[5] = Homo sapiens, NCI-H460, 72 h, NCI-H460 (Lung)
[6] = Homo sapiens, NCI-H520, 72 h, NCI-H520 (Lung)
[7] = Homo sapiens, NCI-H838, 72 h, NCI-H838 (Lung)
[8] = Homo sapiens, NCI-H1299, 72 h, NCI-H1299 (Lung)
[9] = Homo sapiens, NCI-H1703, 72 h, NCI-H1703 (Lung)
[10] = Homo sapiens, NCI-H1755, 72 h, NCI-H1755 (Lung)
[11] = Homo sapiens, NCI-H1975, 72 h, NCI-H1975 (Lung)
[12] = Homo sapiens, NCI-H2122, 72 h, NCI-H2122 (Lung)
[13] = Homo sapiens, PANC-1, 72 h, PANC-1 (Pancreas)
[14] = Homo sapiens, PLC-PRF-5, 72 h, PLC-PRF-5 (Liver)
[15] = Homo sapiens, RPMI-8226, 72 h, RPMI-8226 (Multiple myeloma)
[16] = Homo sapiens, SK-HEP1, 72 h, SK-HEP-1 (Liver)
[17] = Homo sapiens, SNU-182, 72 h, SNU-182 (Liver)
[18] = Homo sapiens, SNU-387, 72 h, SNU-387 (Liver)
[19] = Homo sapiens, SNU-398, 72 h, SNU-398 (Liver)
[20] = Homo sapiens, SNU-423, 72 h, SNU-423 (Liver)
[21] = Homo sapiens, SNU-449, 72 h, SNU-449 (Liver)
[22] = Homo sapiens, SNU-475, 72 h, SNU-475 (Liver)
[23] = Homo sapiens, SW48, 72 h, SW48 (Colon)
[24] = Homo sapiens, SW900, 72 h, SW900 (Lung)
[25] = Homo sapiens, SW1417, 72 h, SW1417 (Colon)
[26] = Homo sapiens, SW-620, 72 h, SW620 (Colon)
[27] = Mel202, 72 h, MEL-202 (Melanoma)

**Q.** `C[C@]1(C(N)=O)CC[C@@H](n2c(Nc3c(Cl)cc(Cl)cc3Cl)nc3cnc(N[C@@H]4CCOC[C@H]4F)nc32)CC1` [Compound 1, cis-4-[2-{[(3S,4R)-3-fluorooxan-4-yl]amino}-8-(2,4,6-trichloroanilino)-9H-purin-9-yl]-1-methylcyclohexane-1-carboxamide] was tested. Which pIC50 (64 cancer cell lines; Homo sapiens, Malme-3M, 72 h, MALME-3M (Melanoma)) did it give?
**A.** 8.42

**Q.** And the GI50 (64 cancer cell lines; [1])?
**A.** 36.4 nM

**Q.** What about the pIC50 (64 cancer cell lines; [1]) of the same molecule?
**A.** 6.74

**Q.** What about the GI50 (64 cancer cell lines; [2]) of the same molecule?
**A.** 1280 nM

**Q.** And the pIC50 (64 cancer cell lines; [2])?
**A.** 5.63

**Q.** And the GI50 (64 cancer cell lines; [3])?
**A.** 1630 nM

**Q.** What about the pIC50 (64 cancer cell lines; [3]) of the same molecule?
**A.** 5.21

**Q.** What about the GI50 (64 cancer cell lines; [4]) of the same molecule?
**A.** 184 nM

**Q.** And the pIC50 (64 cancer cell lines; [4])?
**A.** 5.20

**Q.** And the GI50 (64 cancer cell lines; [5])?
**A.** 244 nM

**Q.** And the pIC50 (64 cancer cell lines; [5])?
**A.** 6.19

**Q.** What about the GI50 (64 cancer cell lines; [6]) of the same molecule?
**A.** 5240 nM

**Q.** What about the pIC50 (64 cancer cell lines; [6]) of the same molecule?
**A.** 5.08

**Q.** And the GI50 (64 cancer cell lines; [7])?
**A.** 567 nM

**Q.** What about the pIC50 (64 cancer cell lines; [7]) of the same molecule?
**A.** 5.04

**Q.** What about the GI50 (64 cancer cell lines; [8]) of the same molecule?
**A.** 234 nM

**Q.** What about the pIC50 (64 cancer cell lines; [8]) of the same molecule?
**A.** 6.30

**Q.** What about the GI50 (64 cancer cell lines; [9]) of the same molecule?
**A.** 1350 nM

**Q.** And the pIC50 (64 cancer cell lines; [9])?
**A.** 5.77

**Q.** And the GI50 (64 cancer cell lines; [10])?
**A.** 40.4 nM

**Q.** What about the pIC50 (64 cancer cell lines; [10]) of the same molecule?
**A.** 7.23

**Q.** What about the GI50 (64 cancer cell lines; [11]) of the same molecule?
**A.** 2050 nM

**Q.** What about the pIC50 (64 cancer cell lines; [11]) of the same molecule?
**A.** 5.50

**Q.** What about the GI50 (64 cancer cell lines; [12]) of the same molecule?
**A.** 31.8 nM

**Q.** What about the pIC50 (64 cancer cell lines; [12]) of the same molecule?
**A.** 7.37

**Q.** And the GI50 (64 cancer cell lines; [13])?
**A.** 5440 nM

**Q.** What about the pIC50 (64 cancer cell lines; [13]) of the same molecule?
**A.** 5.00

**Q.** What about the GI50 (64 cancer cell lines; [14]) of the same molecule?
**A.** 888 nM

**Q.** What about the pIC50 (64 cancer cell lines; [14]) of the same molecule?
**A.** 5.40

**Q.** What about the GI50 (64 cancer cell lines; [15]) of the same molecule?
**A.** 3240 nM

**Q.** And the pIC50 (64 cancer cell lines; [15])?
**A.** 5.01

**Q.** What about the GI50 (64 cancer cell lines; [16]) of the same molecule?
**A.** 7040 nM

**Q.** And the pIC50 (64 cancer cell lines; [16])?
**A.** 5.00

**Q.** And the GI50 (64 cancer cell lines; [17])?
**A.** 76.4 nM

**Q.** What about the pIC50 (64 cancer cell lines; [17]) of the same molecule?
**A.** 5.30

**Q.** And the GI50 (64 cancer cell lines; [18])?
**A.** 33.2 nM

**Q.** And the pIC50 (64 cancer cell lines; [18])?
**A.** 6.98

**Q.** What about the GI50 (64 cancer cell lines; [19]) of the same molecule?
**A.** 265 nM

**Q.** And the pIC50 (64 cancer cell lines; [19])?
**A.** 5.71

**Q.** What about the GI50 (64 cancer cell lines; [20]) of the same molecule?
**A.** 6240 nM

**Q.** What about the pIC50 (64 cancer cell lines; [20]) of the same molecule?
**A.** 5.00

**Q.** What about the GI50 (64 cancer cell lines; [21]) of the same molecule?
**A.** 10000 nM

**Q.** And the pIC50 (64 cancer cell lines; [21])?
**A.** 5.00

**Q.** What about the GI50 (64 cancer cell lines; [22]) of the same molecule?
**A.** 9990 nM

**Q.** What about the pIC50 (64 cancer cell lines; [22]) of the same molecule?
**A.** 5.00

**Q.** What about the GI50 (64 cancer cell lines; [23]) of the same molecule?
**A.** 5.7 nM

**Q.** What about the pIC50 (64 cancer cell lines; [23]) of the same molecule?
**A.** 7.06

**Q.** And the GI50 (64 cancer cell lines; [24])?
**A.** 4.8 nM

**Q.** And the pIC50 (64 cancer cell lines; [24])?
**A.** 7.66

**Q.** What about the GI50 (64 cancer cell lines; [25]) of the same molecule?
**A.** 0.5 nM

**Q.** And the pIC50 (64 cancer cell lines; [25])?
**A.** 7.77

**Q.** And the GI50 (64 cancer cell lines; [26])?
**A.** 47 nM

**Q.** And the pIC50 (64 cancer cell lines; [26])?
**A.** 7.04

**Q.** What about the GI50 (64 cancer cell lines; JHH1, 72 h, JHH-1 (Liver)) of the same molecule?
**A.** 1.6 nM

**Q.** And the pIC50 (64 cancer cell lines; JHH1, 72 h, JHH-1 (Liver))?
**A.** 7.02

**Q.** What about the GI50 (64 cancer cell lines; JHH7, 72 h, JHH-7 (Liver)) of the same molecule?
**A.** 83.4 nM

**Q.** What about the pIC50 (64 cancer cell lines; JHH7, 72 h, JHH-7 (Liver)) of the same molecule?
**A.** 6.26

**Q.** And the GI50 (64 cancer cell lines; JHH-2, 72 h, JHH-2 (Liver))?
**A.** 129 nM

**Q.** And the pIC50 (64 cancer cell lines; JHH-2, 72 h, JHH-2 (Liver))?
**A.** 5.35

**Q.** What about the GI50 (64 cancer cell lines; JHH-4, 72 h, JHH-4 (Liver)) of the same molecule?
**A.** 363 nM

**Q.** What about the pIC50 (64 cancer cell lines; JHH-4, 72 h, JHH-4 (Liver)) of the same molecule?
**A.** 5.63

**Q.** And the GI50 (64 cancer cell lines; [27])?
**A.** 38.5 nM

**Q.** What about the pIC50 (64 cancer cell lines; [27]) of the same molecule?
**A.** 7.01

**Q.** What about the pIC50 (pRSK1 S380 in SW48 cells) of the same molecule?
**A.** 7.68
